The results in this text go back to ChEMBL document CHEMBL3301361, “Experimental in vitro DMPK and physicochemical data on a set of publicly disclosed compounds”.

Structures are written as SMILES.

A short description of the series: physchem. The following applies: octan-1-ol/water.

For `O=C(Nc1nc2ccccc2n1CCN1CCOCC1)c1cccc([N+](=O)[O-])c1`, for the setting “pH 7.4, LogD7.4”, the pH-dependent lipophilicity (logD) (in general, the decadic logarithm of the distribution of all forms, ionised or not, between an organic phase and buffer at a given pH) turned out to be 3.3.
Molecule `O=S(=O)(Nc1cccnc1)c1ccccc1` showed a logD (pH 7.4, LogD7.4) of 0.84.
On the same count and under the same terms, as for `CC(C)C(=O)Nc1ccc2c(c1)C(=O)NC2=O`, the figure is 1.55.
`CN(C)CCN(Cc1ccccc1)c1ccccn1` [TRIPELENNAMINE] gave a logD (pH 7.4, LogD7.4) of 1.28.
Same read-out and setting: as for `O=C(CC1CCN(Cc2ccn(-c3ccc(C(F)(F)F)cc3)c2)CC1)NC(c1ccc(F)cc1)c1c[nH]c(=O)c(Cl)c1` (stereo unspecified), the figure is 3.12; as for `Fc1cccc(-c2cncc(CNCC3CC3)n2)c1F`, 1.82.
In turn, `CC(C)(C)c1ccc(C2=NC(=O)C(CC(=O)O)S2)cc1` (stereo unspecified) showed a logD (pH 7.4) of -0.1.
`O=C(Nc1cccc([C@@H](c2ccc(C(=O)N3CCC3)cc2)N2CCN(Cc3ccc(F)cc3)CC2)c1)C1CC1` came in with a logD (pH 7.4) of 3.58.
`O=C(Oc1ccccc1)N1CCOCC1` displayed a logD (pH 7.4, LogD7.4) of 1.3.
Still for that read-out and setting: for `O=C(COCc1ccccn1)N1CCN(c2ccc(Cl)cc2Cl)CC1` the value was 3.47; for `CCCN(CCC)S(=O)(=O)c1ccc(C(=O)O)cc1` [PROBENECID], 0.03; for `CCCSc1ncccc1C(=O)N1CCCC1c1ccncc1` (stereo unspecified), 1.95.
Same read-out and setting: as for `Cn1cncc1-c1c2c(=O)n(CC3CC3)c(=O)n(CC3CC3)c2nn1Cc1ccnc2ccc(Cl)cc12`, the figure is 4.33.
The same measure, in the same setting: as for `C[C@H](NC(=O)/C=C/c1ccccc1)c1cccc(N2CCOCC2)c1`, the figure is 3.24.
Take `COc1cc2c(c(OC)c1OC)-c1ccc(OC)c(=O)cc1C(NC(C)=O)CC2` (stereo unspecified): under “pH 7.4”, the logD was determined as 1.12.
On to `CC(=O)N[C@H](C)c1ccc(Nc2ncc3cc(-c4ccncc4)cc(C)c3n2)cc1`, for which the pH-dependent lipophilicity (logD) (pH 7.4, LogD7.4) came to 3.46.
Still for that read-out and setting: as for `O=c1c(-c2ccc3c(c2)OCO3)coc2cc(O)cc(O)c12`, the figure is 3.5.
Regarding `COc1ccc(C(CN2CCCC2)N(C)C(=O)Cc2ccc(Cl)c(Cl)c2)c(OC)c1` (stereo unspecified), the logD (pH 7.4) is 3.07.
Molecule `CC(C)Cn1c(=O)n(C)c(=O)c2c(C(=O)N3CC(C)(O)C3)c(Cc3ccccc3C(F)(F)F)sc21` yielded a logD (pH 7.4, LogD7.4) of 3.18.
As to `Cc1ccc(S(=O)(=O)Nc2ccc(/C=C/C(=O)Nc3ccccc3N)cc2)cc1`, the logD (pH 7.4, LogD7.4) came to 2.82.
Same read-out and setting: for `C[C@@](O)(C(=O)Nc1ccc(C(=O)N2CCCCC2)cc1Cl)C(F)(F)F` the value was 2.62.
Regarding `Cc1c(Sc2ccc(Cl)cc2)c2c(Cl)nccc2n1CC(=O)O`, for the setting “pH 7.4, LogD7.4”, the logD turned out to be 0.92.
The same measure, in the same setting: for `OCC[C@@]1(c2ccc(Cl)c(Cl)c2)CCCNC1` the value was 0.62.
The same measure, in the same setting: for `COc1c(C#N)cc2ccccc2c1C(=O)N(C)C[C@@H](CCN1CCC(N2CCCNC2=O)CC1)c1ccc(Cl)c(Cl)c1` the value was 3; for `COc1ccnc(C[S+]([O-])c2nc3ccc(OC(F)F)cc3[nH]2)c1OC` (stereo unspecified) [PANTOPRAZOLE], 2; for `O=C(COCc1ccncc1)N1CCN(c2ccc(Cl)cc2F)CC1`, 2.55.
Same read-out and setting: as for `O=C(NC1Cc2ccccc2N(CC(=O)N2CCC(O)CC2)C1=O)c1cc2cc(Cl)sc2[nH]1` (stereo unspecified), the figure is 2.86.
As for `Cc1cc(Oc2ccnc(Nc3cccc(N4CCOCC4)c3)c2)c(-c2ccccn2)nc1C`, the logD (pH 7.4, LogD7.4) was found to be 3.27.
The same measure, in the same setting: as for `O=C(Nc1ccc(Cl)c(Cl)c1)N1CCN(C[C@H]2CN(C3CC3)CCO2)CC1`, the figure is 3.32; as for `COc1cc(N2CCN(C(C)=O)CC2)ccc1Nc1ncc(Br)c(-c2cnc3ccccn23)n1`, 3.7.
For `CCS(=O)(=O)c1ccc(Oc2c(C)n(CC(=O)O)c3ccc(C(F)(F)F)cc23)cc1`, the pH-dependent lipophilicity (logD) (pH 7.4, LogD7.4) was determined as 0.29.
Same read-out and setting: as for `Cc1cn([C@H]2CCCN(Cc3cccc(Oc4cccc(Br)c4)c3)C2)c(=O)[nH]c1=O`, the figure is 3.68; as for `Cc1c(CCC(=O)O)c(=O)oc2cc(O)ccc12`, -0.7.
Still for that read-out and setting: as for `NC(=O)Nc1sc(-c2ccc(OCCN3CCCCC3)cc2)cc1C(N)=O`, the figure is 1.2; as for `Clc1ccc(C2(c3ccc(-c4cn[nH]c4)cc3)CCNCC2)cc1`, 1.51; as for `Cc1ccsc1Cn1[nH]c(=O)c2[nH]c3cc(Cl)ccc3c(=O)c2c1=O`, 1.15.
In turn, `CC(c1ccccc1)C(Cc1nc2ccccc2[nH]1)c1nc2ccccc2[nH]1` (stereo unspecified) had a logD (pH 7.4, LogD7.4) of 4.48.
On the same count and under the same terms, for `CN(c1ncccc1CNc1nc(Nc2ccc3c(c2)CC(=O)N3)ncc1C(F)(F)F)S(C)(=O)=O` [PF-00562271] the value was 2.63.
`O=C(c1ccccc1)c1ccc2n1CCC2C(=O)O` (stereo unspecified) [KETOROLAC] had a logD (pH 7.4, LogD7.4) of -0.93.
Same read-out and setting: for `CCC(c1nc2ccsc2c(=O)n1Cc1cccnc1)N(CCCN)C(=O)c1ccc(C)cc1` (stereo unspecified) the value was 0.01; for `CCCc1c(OCc2ccc(-c3nn[nH]n3)cc2OC)ccc(C(C)=O)c1O`, 2.8; for `CC(C)c1nnc2ccc(-c3ocnc3-c3cc(F)ccc3F)cn12`, 2.44.
Still for that read-out and setting: as for `NC1=NC(c2ccc(Cl)c(Cl)c2)CC(=O)N1` (stereo unspecified), the figure is 1.46.
Same read-out and setting: as for `CNC(=O)c1cccc(NC(=O)Nc2cccc(C#N)c2)c1CN1CCC(Cc2ccc(F)cc2)CC1`, the figure is 3.97.
For the molecule `COc1ccccc1CNC(=O)c1ccc2cnccc2n1`, the log distribution coefficient (logD) (pH 7.4, LogD7.4) was 1.8.
The same measure, in the same setting: as for `CC(=O)NC[C@H]1CN(c2ccc(N3Cc4ccncc4C3)c(F)c2)C(=O)O1`, the figure is 3.02.
On the same count and under the same terms, for `Nc1nccc(-c2cccs2)n1` the value was 1.75; for `N#Cc1cccc(S(=O)(=O)NC(=O)N2CCC(N3CCC(Oc4ccc(Cl)c(Cl)c4)CC3)CC2)c1`, 1.81; for `O=C(N[C@@H](Cc1cccc(OCCCNc2ccccn2)c1)C(=O)O)c1c(Cl)cccc1Cl`, 0.16.
Molecule `Cc1cccc(C(N)=O)c1NC(=O)c1ccccc1` came in with a logD (pH 7.4, LogD7.4) of 1.09.
Take `CN(C)CC1CCn2c(c(C3=C(c4cn(C)c5ccccc45)C(=O)NC3=O)c3ccccc32)C1` (stereo unspecified): for the setting “pH 7.4, LogD7.4”, the logD was found to be 2.88.
The same measure, in the same setting: as for `CCOC(=O)c1cc(O)c(-c2ccccc2)nn1`, the figure is 0.69; as for `OCCn1cc(-c2cnc3nnn(Cc4ccc5ncccc5c4)c3n2)cn1` [PF-04217903], 1.7.
Same read-out and setting: for `C[C@H]1O[C@@H](n2cnc3c(N)nc(OC4CCOC4)nc32)[C@H](O)[C@@H]1O` (stereo partly specified) the value was -0.06; for `O=S(=O)(c1ccccc1-c1ccc(CNC2CCOCC2)cc1)N1CCCC1`, 1.4; for `CC(C)COCC(CN(Cc1ccccc1)c1ccccc1)N1CCCC1` (stereo unspecified) [BEPRIDIL], 3.66.
In turn, `O=C1O[C@@H](COc2ccon2)CN1c1ccc(C2=CCOCC2)c(F)c1` returned a logD (pH 7.4, LogD7.4) of 2.61.
On the same count and under the same terms, as for `CC(=O)[C@@]1(O)CC[C@H]2[C@@H]3C[C@H](C)C4=CC(=O)C=C[C@]4(C)[C@@]3(F)[C@@H](O)C[C@@]21C` [FLUOROMETHOLONE], the figure is 2.65.
Turning to `Cc1cccc([C@H](C)c2cnc[nH]2)c1C` [DEXMEDETOMIDINE], the logD (pH 7.4) amounted to 2.79.
The molecule `CC(C)n1c(=O)n(C)c(=O)c2c(C(=O)N3CCS(=O)(=O)C3)c(Cc3ccccc3C(F)(F)F)sc21` returned a pH-dependent lipophilicity (logD) (pH 7.4, LogD7.4) of 2.55.
The same measure, in the same setting: for `Nc1nc(N)c2cc(Br)ccc2n1` the value was 1.78; for `N=C(N)NC(=O)c1nc(Cl)c(NCc2ccccn2)nc1N`, -0.56; for `CNC(=O)c1ccc(Nc2ncc(F)c(-c3cnc(C)n3C(C)C)n2)cc1`, 3.
Still for that read-out and setting: as for `Cc1ccc(-c2ncc[nH]2)cc1NC(=O)c1ccc(OCc2ccccn2)cc1`, the figure is 3.01; as for `C[C@@H]1CN(c2noc(C(F)(F)F)n2)CCN1c1ncc(OCc2ccncc2C#N)cn1`, 3.95.
Still for that read-out and setting: for `O=c1[nH]c2c(O)ccc([C@@H](O)CNCCCSCCOCCc3ccccc3)c2s1` the value was 2.3.
